Measured values as given in US6569229B1, “Low-freezing point formulation containing phenol derivatives” (Omya AG, priority 1998, dated 2003).

Columns and labels:
[1] = Solubility / miscibility in water and attainable concentration; type: physicochemical; settings: NaOH as neutralizing agent, room temperature; higher concentrations impossible or recrystallized during storage
[2] = cited from earlier work
[3] = pH of the preserved slurry or coolant; type: physicochemical
[4] = tested on: aerobic mesophilic germs; test: Germ count (determination of aerobic mesophilic germs) in preserved slurry or coolant; type: cell-based, pseudomonads (predominantly Pesudomonas aeruginosa)
Protocol: The germ count was determined according to the method “Determination of aerobic mesophilic germs”, Schweizerisches Lebensmittelbuch, chapter 56, paragraph 7.01, 1985 edition, revised version 1988. Mostly, the bacterial strains detected were from the family of pseudomonads (predominantly Pesudomonas aeruginosa).

[5] = Brookfield viscosity of the preserved pigment slurry; type: physicochemical
Protocol: Measurement of the viscosity was performed on a Brookfield viscosimeter type PVF-100 at 100 rpm. The following spindles were used for the individual measurements:
The measurement was carried out in a low 400 ml beaker.
The temperature during the measurement was 20° C. The measurement was performed after 1 min of stirring.
Prior to the actual measurements, all samples were stirred intensively for 2 min (5000 rpm, stirring disc diameter 50 mm).
This type of viscosity measurement was used in all of the following examples.

Oc1ccccc1-c1ccccc1 [o-phenylphenol]
attainable concentration of o-phenylphenol solution [1]: ≤ 20 % by wt.
solubility in water [2]: almost insoluble in water
water miscibility ([2]; o-phenylphenol in monopropylene glycol): not water miscible
pH of coolant ([3]; 5% oil in water coolant emulsion, 2 kg actives/t, added as 50% solution (Example 13), blank 6.9): 7.0
pH of slurry ([3]; calcium carbonate slurry 77.8% solids, 250 g actives/t, added according to example 8, 47.5% solution (Example 11), blank 9.6): 9.5
pH of slurry ([3]; calcium carbonate slurry 77.8% solids, 250 g actives/t, added as solution of example 2 (Example 4, prior art), blank 9.6): 10.2
pH of slurry ([3]; kaolin slurry 72.8% solids, 300 g actives/t, added as solution of example 1 (Example 3, prior art), blank 7.4): 8.1
pH of slurry ([3]; kaolin slurry 72.8% solids, 300 g actives/t, added as solution of example 7 (Example 10), blank 7.4): 7.4
pH of slurry ([3]; talc slurry 64.2% solids, 350 g actives/t, added as 30% solution of example 9 (Example 12), blank 10.1): 10.2
germ count after 24 hrs ([4]; 5% oil in water coolant emulsion, 2 kg actives/t, added as 50% solution (Example 13), blank 10^7/g): < 100 g⁻¹
germ count after 24 hrs ([4]; calcium carbonate slurry, 250 g actives/t, added according to example 8, 47.5% solution (Example 11), blank 10^6/g): < 100 g⁻¹
germ count after 24 hrs ([4]; calcium carbonate slurry, 250 g actives/t, added as solution of example 2 (Example 4), blank 10^5/g): < 100 g⁻¹
germ count after 24 hrs ([4]; kaolin slurry, 300 g actives/t, added as solution of example 1 (Example 3), blank 10^5/g): < 100 g⁻¹
germ count after 24 hrs ([4]; kaolin slurry, 300 g actives/t, added as solution of example 7 (Example 10), blank 10^5/g): < 100 g⁻¹
germ count after 24 hrs ([4]; talc slurry, 350 g actives/t, added as 30% solution of example 9 (Example 12), blank 10^5/g): < 100 g⁻¹
Brookfield viscosity spindle 3, 100 rpm after preparation ([5]; calcium carbonate slurry 77.8% solids, 250 g actives/t, added according to example 8, 47.5% solution (Example 11), blank 340): 350 mPas
Brookfield viscosity spindle 3, 100 rpm after 1 week ([5]; calcium carbonate slurry 77.8% solids, 250 g actives/t, added according to example 8, 47.5% solution (Example 11), blank 350): 380 mPas
Brookfield viscosity spindle 3, 100 rpm after preparation ([5]; calcium carbonate slurry 77.8% solids, 250 g actives/t, added as solution of example 2 (Example 4), blank 340): 320 mPas
Brookfield viscosity spindle 3, 100 rpm after 1 week ([5]; calcium carbonate slurry 77.8% solids, 250 g actives/t, added as solution of example 2 (Example 4), blank 350): 460 mPas
Brookfield viscosity spindle 3, 100 rpm after preparation ([5]; kaolin slurry 72.8% solids, 300 g actives/t, added as solution of example 1 (Example 3), blank 240): 310 mPas
Brookfield viscosity spindle 3, 100 rpm after 1 week ([5]; kaolin slurry 72.8% solids, 300 g actives/t, added as solution of example 1 (Example 3), blank 330): 760 mPas
Brookfield viscosity spindle 3, 100 rpm after preparation ([5]; kaolin slurry 72.8% solids, 300 g actives/t, added as solution of example 7 (Example 10), blank 240): 250 mPas
Brookfield viscosity spindle 3, 100 rpm after 1 week ([5]; kaolin slurry 72.8% solids, 300 g actives/t, added as solution of example 7 (Example 10), blank 330): 350 mPas
Brookfield viscosity spindle 3, 100 rpm after preparation ([5]; talc slurry 64.2% solids, 350 g actives/t, added as 30% solution of example 9 (Example 12), blank 320): 320 mPas
Brookfield viscosity spindle 3, 100 rpm after 1 week ([5]; talc slurry 64.2% solids, 350 g actives/t, added as 30% solution of example 9 (Example 12), blank 480): 540 mPas
